Laboratory results published in article PMC3914206.

Tests used:
Format in all cases: binding
Details in all cases: Compound Concentration 10 µM
panel of 442 kinases [1] = target: T1, panel of 442 kinases (Homo sapiens, UniProt Q14004)
T1 construct: purchased KINOMEscan
Description: (§1) We assessed the selectivity of members of this scaffold using the KINOMEscan methodology across a near comprehensive panel of 442 kinases [[18,27]].

panel of 442 kinases [2] = target: T2, panel of 442 kinases (Homo sapiens, UniProt P53355)
T2 construct: purchased KINOMEscan
Description: as §1

panel of 442 kinases [3] = target: T3, panel of 442 kinases (Homo sapiens, UniProt P29320)
T3 construct: purchased KINOMEscan
T3 sequence (P29320 21-983): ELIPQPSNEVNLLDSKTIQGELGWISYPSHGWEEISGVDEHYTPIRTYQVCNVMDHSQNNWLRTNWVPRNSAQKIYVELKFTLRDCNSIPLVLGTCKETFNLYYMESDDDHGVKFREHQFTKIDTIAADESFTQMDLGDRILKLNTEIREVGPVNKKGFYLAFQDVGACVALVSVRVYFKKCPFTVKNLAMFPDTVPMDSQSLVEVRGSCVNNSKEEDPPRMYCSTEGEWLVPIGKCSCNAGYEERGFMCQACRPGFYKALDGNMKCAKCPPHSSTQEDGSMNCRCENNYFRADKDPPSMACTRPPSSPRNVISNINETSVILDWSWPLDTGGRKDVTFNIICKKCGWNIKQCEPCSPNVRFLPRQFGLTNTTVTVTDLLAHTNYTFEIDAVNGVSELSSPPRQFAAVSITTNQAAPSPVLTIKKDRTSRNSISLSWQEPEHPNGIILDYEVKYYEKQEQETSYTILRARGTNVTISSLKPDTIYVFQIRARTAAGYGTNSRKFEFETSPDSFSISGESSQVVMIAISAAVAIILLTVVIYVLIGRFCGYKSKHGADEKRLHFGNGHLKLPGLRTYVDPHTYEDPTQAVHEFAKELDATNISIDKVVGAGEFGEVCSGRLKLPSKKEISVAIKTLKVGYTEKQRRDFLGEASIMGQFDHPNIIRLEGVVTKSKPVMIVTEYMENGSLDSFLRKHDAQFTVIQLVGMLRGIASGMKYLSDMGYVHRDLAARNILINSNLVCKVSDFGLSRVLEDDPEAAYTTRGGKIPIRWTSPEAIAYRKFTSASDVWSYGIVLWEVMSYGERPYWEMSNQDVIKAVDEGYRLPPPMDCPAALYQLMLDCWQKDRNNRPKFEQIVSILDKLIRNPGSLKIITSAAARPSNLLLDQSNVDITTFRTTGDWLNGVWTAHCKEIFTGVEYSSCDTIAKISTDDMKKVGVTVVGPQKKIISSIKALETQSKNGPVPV
Description: as §1

T1 sequence (Q14004 whole entry): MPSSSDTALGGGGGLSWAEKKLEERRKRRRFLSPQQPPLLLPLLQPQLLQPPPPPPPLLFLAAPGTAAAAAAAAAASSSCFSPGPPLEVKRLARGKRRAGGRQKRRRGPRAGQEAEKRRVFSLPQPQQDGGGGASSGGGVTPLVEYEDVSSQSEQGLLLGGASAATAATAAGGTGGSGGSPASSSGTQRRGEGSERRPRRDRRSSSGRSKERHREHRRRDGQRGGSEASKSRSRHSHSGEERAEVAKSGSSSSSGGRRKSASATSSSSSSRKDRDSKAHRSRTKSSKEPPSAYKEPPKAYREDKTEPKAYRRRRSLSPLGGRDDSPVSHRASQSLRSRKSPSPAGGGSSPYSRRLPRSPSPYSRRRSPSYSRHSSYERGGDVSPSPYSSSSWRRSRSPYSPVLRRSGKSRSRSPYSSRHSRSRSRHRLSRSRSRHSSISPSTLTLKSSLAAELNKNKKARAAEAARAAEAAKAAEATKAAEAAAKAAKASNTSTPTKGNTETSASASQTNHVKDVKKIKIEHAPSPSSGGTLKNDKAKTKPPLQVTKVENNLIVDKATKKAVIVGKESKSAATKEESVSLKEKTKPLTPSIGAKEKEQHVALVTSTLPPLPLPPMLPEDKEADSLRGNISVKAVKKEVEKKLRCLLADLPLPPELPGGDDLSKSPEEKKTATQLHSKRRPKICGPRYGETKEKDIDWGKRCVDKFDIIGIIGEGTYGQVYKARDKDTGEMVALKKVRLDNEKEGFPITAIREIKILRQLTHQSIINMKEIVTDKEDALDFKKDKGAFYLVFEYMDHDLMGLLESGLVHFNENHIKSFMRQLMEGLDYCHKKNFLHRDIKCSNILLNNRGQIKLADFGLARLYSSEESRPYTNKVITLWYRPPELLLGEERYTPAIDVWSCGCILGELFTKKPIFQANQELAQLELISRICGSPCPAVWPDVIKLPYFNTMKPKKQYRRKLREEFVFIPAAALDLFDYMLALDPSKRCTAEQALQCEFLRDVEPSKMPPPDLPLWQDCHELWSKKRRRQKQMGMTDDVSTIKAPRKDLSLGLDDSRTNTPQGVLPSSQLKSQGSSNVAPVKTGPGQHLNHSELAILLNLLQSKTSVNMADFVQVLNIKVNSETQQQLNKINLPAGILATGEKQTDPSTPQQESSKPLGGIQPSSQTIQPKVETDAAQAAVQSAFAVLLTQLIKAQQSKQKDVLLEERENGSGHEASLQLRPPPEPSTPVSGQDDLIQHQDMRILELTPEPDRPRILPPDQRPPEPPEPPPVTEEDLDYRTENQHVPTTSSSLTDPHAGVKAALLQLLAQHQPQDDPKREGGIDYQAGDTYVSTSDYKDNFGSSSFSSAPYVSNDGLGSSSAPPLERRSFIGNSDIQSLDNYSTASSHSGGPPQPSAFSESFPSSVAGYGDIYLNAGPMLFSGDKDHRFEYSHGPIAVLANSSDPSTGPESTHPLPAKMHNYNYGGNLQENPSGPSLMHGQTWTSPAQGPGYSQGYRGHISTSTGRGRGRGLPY
T2 sequence (P53355 whole entry): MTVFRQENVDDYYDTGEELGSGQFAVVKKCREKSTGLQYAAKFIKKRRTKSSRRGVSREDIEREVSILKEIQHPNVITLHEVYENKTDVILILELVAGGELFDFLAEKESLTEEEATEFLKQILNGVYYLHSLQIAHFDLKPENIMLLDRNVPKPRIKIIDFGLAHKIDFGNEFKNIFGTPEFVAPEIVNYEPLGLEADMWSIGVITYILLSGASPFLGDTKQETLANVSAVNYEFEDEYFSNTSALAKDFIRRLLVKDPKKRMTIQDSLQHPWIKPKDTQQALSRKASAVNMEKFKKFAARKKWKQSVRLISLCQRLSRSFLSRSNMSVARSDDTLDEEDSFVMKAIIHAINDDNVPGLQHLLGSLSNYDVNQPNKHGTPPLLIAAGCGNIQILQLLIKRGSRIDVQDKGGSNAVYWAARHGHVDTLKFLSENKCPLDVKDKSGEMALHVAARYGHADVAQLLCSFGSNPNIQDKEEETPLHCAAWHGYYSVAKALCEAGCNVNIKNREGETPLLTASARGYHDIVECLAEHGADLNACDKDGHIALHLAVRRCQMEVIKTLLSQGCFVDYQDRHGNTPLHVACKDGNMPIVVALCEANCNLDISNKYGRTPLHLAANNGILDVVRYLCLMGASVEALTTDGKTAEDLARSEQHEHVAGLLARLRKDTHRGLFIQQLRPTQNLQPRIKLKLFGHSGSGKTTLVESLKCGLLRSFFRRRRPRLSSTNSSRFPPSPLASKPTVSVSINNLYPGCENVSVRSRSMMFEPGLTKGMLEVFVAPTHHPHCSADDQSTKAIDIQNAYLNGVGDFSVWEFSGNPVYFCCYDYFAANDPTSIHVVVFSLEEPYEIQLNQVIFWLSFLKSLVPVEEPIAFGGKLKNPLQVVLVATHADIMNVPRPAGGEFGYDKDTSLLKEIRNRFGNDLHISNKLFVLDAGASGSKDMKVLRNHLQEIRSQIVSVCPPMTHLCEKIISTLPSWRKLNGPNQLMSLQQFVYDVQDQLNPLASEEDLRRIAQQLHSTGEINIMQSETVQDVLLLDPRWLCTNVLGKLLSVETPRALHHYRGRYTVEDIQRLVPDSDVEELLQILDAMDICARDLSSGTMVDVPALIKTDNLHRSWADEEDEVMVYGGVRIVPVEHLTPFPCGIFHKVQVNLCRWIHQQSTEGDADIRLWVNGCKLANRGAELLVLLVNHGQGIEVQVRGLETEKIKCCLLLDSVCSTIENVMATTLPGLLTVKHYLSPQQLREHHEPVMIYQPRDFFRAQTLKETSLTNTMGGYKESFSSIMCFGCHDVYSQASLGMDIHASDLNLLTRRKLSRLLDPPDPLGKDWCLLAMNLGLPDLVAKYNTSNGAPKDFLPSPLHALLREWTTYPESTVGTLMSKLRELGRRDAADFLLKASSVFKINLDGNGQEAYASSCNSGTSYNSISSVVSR

Row | Compound | KINOMEscan: CDC2L5 (panel of 442 kinases [1]) | KINOMEscan: DAPK1 (panel of 442 kinases [2]) | KINOMEscan: EPHA3 (panel of 442 kinases [3])
1 | COc1cc(C(=O)N2CCC(N3CCN(C)CC3)CC2)ccc1Nc1ncc2c(n1)N(C1CCCC1)c1ccccc1C(=O)N2C [Compound 25, 11-cyclopentyl-2-((2-methoxy-4-(4-(4-methylpiperazin-1-yl)piperidine-1-carbonyl)phenyl)amino)-5-methyl-5H-benzo[e]pyrimido[5,4-b][1,4]diazepin-6(11H)-one] | 100 | 77 | 100
2 | CCOc1cc(C(=O)N2CCC(N3CCN(C)CC3)CC2)ccc1Nc1ncc2c(n1)N(C1CCCC1)c1ccccc1C(=O)N2C [Compound 26] | 100 | 100 | 95
3 | COc1cc(C(=O)N2CCC(N3CCN(C)CC3)CC2)ccc1Nc1ncc2c(n1)N1CCc3cccc(c31)C(=O)N2C [Compound 24] |  | 19 | 91
4 | COc1cc(C(=O)N2CCC(N3CCN(C)CC3)CC2)ccc1Nc1ncc2c(n1)N(C)c1ccccc1C(=O)N2C [15 (LRRK2-IN-1)] | 100 | 73 | 100
